Assay results as given in patent publication US8293781B2, “Indole derivatives having cPLA2 inhibiting activity and applications and production methods of the same” (Daiichi Sankyo Company, Limited, priority 2007, dated 2012).
Structures can show the parent of a compound that is named as a salt.

How the values were obtained:
[1] = system: guinea pig antigen induced bronchial asthma model; test: Guinea pig antigen induced bronchial asthma model: infiltrating cells in BALF; format: in vivo
Experimental: Hartley male guinea pigs (Kyudo Co., Ltd.) were sensitized by inhaling the aerosolized 1% OVA-containing physiological saline solution for consecutive 8 days. One week after the final sensitization, antigen antibody reaction was elicited by inhaling the aerosolized 2% OVA-containing physiological saline solution. 24 hours and 1 hour before antigen challenge, metyrapone (10 mg/kg, 1.0 ml/kg) was injected to the hind limb peripheral vein. 30 minutes before antigen challenge, pyrilamine maleate (10 mg/kg, 1.0 ml/kg) was administered intraperitoneally. The test compound (5 mg/kg and 20 mg/kg, 5.0 ml/kg) was administered once a day from the day after the final sensitization to the day before challenge. On the day of challenge, it was administered orally 1 hour before challenge and 8 hours after challenge. Note that the number of mice used in the test was made eight per group.
The number of cells in a bronchial alveolar lavage fluid was counted after measurement of the airway hyperreactivity. Each guinea pig was exsanguinated under anesthesia, its chest was opened, a cannular was inserted into the trachea, then physiological saline was injected into and sucked out from the lungs to recover the bronchial alveolar lavage fluid (BALF). The BALF was centrifugally separated, the obtained precipitate (pellets) was suspended in physiological saline and the total number of cells per 1 μl was calculated by an automatic blood cell counting system (Sysmex F-820). The total number of cells was calculated, then the sample was again centrifugally separated and the obtained pellets were hemolyzed, diluted, centrifuged, and dried, then stained by May-Greenwald's-Giemsa dye. Using a microscope, the ratios of the macrophages, eosinophil granulocytes, neutrophils, and lymphocytes to the total blood cell count (total number of cells) were found and the ratios used to calculate the numbers of cells per μl. The inhibiting rate was found as a percent (%) of the value of the number of cells of the control vehicle administered group minus the number of cells of each compound administered group with respect to the value of the number of cells of the vehicle administered group minus the number of cells of the negative control saline inhalation group.

rats = test: Repeated oral administration to rats once a day over two weeks (toxicity); format: in vivo, rat; details: once a day over two weeks repeatedly orally
Experimental: Further, the present invention compound (I) or its salts or their solvates have low toxicity. In experiments administering the compound of Example 231 of the present invention to rats once a day over two weeks repeatedly orally, the nontoxic amount was 180 mg/kg/day.

Compound	Inhibitory rate of infiltrating cells in BALF: Eosinophils ([1]; 5 mg/kg oral) [%]	Inhibitory rate of infiltrating cells in BALF: Lymphocytes ([1]; 5 mg/kg oral) [%]	Inhibitory rate of infiltrating cells in BALF: Macrophages ([1]; 5 mg/kg oral) [%]	Inhibitory rate of infiltrating cells in BALF: Neutrophils ([1]; 5 mg/kg oral) [%]	Inhibitory rate of infiltrating cells in BALF: Total number of cells ([1]; 5 mg/kg oral) [%]	Inhibitory rate of infiltrating cells in BALF: Eosinophils ([1]; 20 mg/kg oral) [%]	Inhibitory rate of infiltrating cells in BALF: Lymphocytes ([1]; 20 mg/kg oral) [%]	Inhibitory rate of infiltrating cells in BALF: Macrophages ([1]; 20 mg/kg oral) [%]	Inhibitory rate of infiltrating cells in BALF: Neutrophils ([1]; 20 mg/kg oral) [%]	Inhibitory rate of infiltrating cells in BALF: Total number of cells ([1]; 20 mg/kg oral) [%]	nontoxic amount (rats) [mg/kg/day]
O=C(O)CCc1ccc2c(c1)c(CCc1ccccc1)cn2-c1ccc(OC(F)F)cc1 [Example 190, 3-{1-[4-(difluoromethoxy)phenyl]-3-(2-phenylethyl)-1H-indol-5-yl}propanoic acid 2-amino-2-(hydroxymethyl)propane-1,3-diol salt (1:1)]	41	30	66	0	33	76	42	76	37	62	–
O=C(O)CCc1ccc2c(c1)c(CCc1ccccc1)cn2-c1ccc(OCCO)cc1 [Example 229, 3-{1-[4-(2-hydroxyethoxy)phenyl]-3-(2-phenylethyl)-1H-indol-5-yl}propanoic acid 2-amino-2-(hydroxymethyl)propane-1,3-diol salt (1:1)]	51	11	58	0	30	46	12	46	16	35	–
O=C(O)CCc1ccc2c(c1)c(CCc1ccccc1)cn2-c1ccc(Oc2ccccc2)cc1 [Example 231, 3-[1-(4-phenoxyphenyl)-3-(2-phenylethyl)-1H-indol-5-yl]propanoic acid 2-amino-2-(hydroxymethyl)propane-1,3-diol salt (1:1)]	58	45	80	38	58	69	55	85	64	72	180
